Laboratory results as given in US10464978B2, “Peptides and combination of peptides for use in immunotherapy against ovarian cancer and other cancers” (immatics biotechnologies GmbH, priority 2015, dated 2019).

Tests used:
HLA-A*02:01 = HLA-A*02:01 (Homo sapiens, UniProt P04439, D140Y/D185E/D98H/E176V/E277Q/G131W/G231S/I119V/I121R/I166T/I218V/L300P/L318F/N151K/N90K/P208A/P217A/Q86G/Q94H/R138H/R169H/T345S); test: MHC binding assay: UV-ligand exchange with beta2m ELISA (peptide exchange yield); conditions: binding to HLA-A*02:01
In short: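 Values give exchange yield, measured by β2m ELISA: 100-fold-diluted monomers bound to streptavidin plates (1h, 37° C), probed with HRP anti-β2m at 2 ug/ml and read at 450 nm after TMB. Monomers came from UV-triggered cleavage of a photolabile peptide and exchange for the test peptide.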

CD8+ T cells = test: In vitro T-cell priming with aAPCs loaded with peptide/MHC and anti-CD28, pMHC multimer readout (in vitro immunogenicity); assay type: cell-based, human; conditions: HLA-A*02, healthy donors
Description: In an aspect, the peptides are pre-screened for immunogenicity before being included in the warehouse. By way of example, and not limitation, the immunogenicity of the peptides included in the warehouse is determined by a method comprising in vitro T-cell priming through repeated stimulations of CD8+ T cells from healthy donors with artificial antigen presenting cells loaded with peptide/MHC complexes and anti-CD28 antibody.
In order to obtain information regarding the immunogenicity of the TUMAPs of the present invention, the inventors performed investigations using an in vitro T-cell priming assay based on repeated stimulations of CD8+ T cells with artificial antigen presenting cells (aAPCs) loaded with peptide/MHC complexes and anti-CD28 antibody.
In order to perform in vitro stimulations by artificial antigen presenting cells loaded with peptide-MHC complex (pMHC) and anti-CD28 antibody, the inventors first isolated CD8+ T cells from fresh HLA-A*02 leukapheresis products via positive selection using CD8 microbeads (Miltenyi Biotec, Bergisch-Gladbach, Germany) of healthy donors obtained from the University clinics Mannheim, Germany, after informed consent.
PBMCs and isolated CD8+ lymphocytes were incubated in T-cell medium (TCM) until use consisting of RPMI-Glutamax (Invitrogen, Karlsruhe, Germany) supplemented with 10% heat inactivated human AB serum (PAN-Biotech, Aidenbach, Germany), 100 U/ml Penicillin/100 μg/ml Streptomycin (Cambrex, Cologne, Germany), 1 mM sodium pyruvate (CC Pro, Oberdorla, Germany), 20 μg/ml Gentamycin (Cambrex). 2.5 ng/ml IL-7 (PromoCell, Heidelberg, Germany) and 10 U/ml IL-2 (Novartis Pharma, Nürnberg, Germany) were also added to the TCM at this step.
Generation of pMHC/anti-CD28 coated beads, T-cell stimulations and readout was performed in a highly defined in vitro system using four different pMHC molecules per stimulation condition and 8 different pMHC molecules per readout condition.
The purified co-stimulatory mouse IgG2a anti human CD28 Ab 9.3 (Jung et al., 1987) was chemically biotinylated using Sulfo-N-hydroxysuccinimidobiotin as recommended by the manufacturer (Perbio, Bonn, Germany). Beads used were 5.6 μm diameter streptavidin coated polystyrene particles (Bangs Laboratories, Illinois, USA).
pMHC used for positive and negative control stimulations were A*0201/MLA-001 (peptide […] (SEQ ID NO. 664) from modified Melan-A/MART-1) and A*0201/DDX5-001 ([…] from DDX5, SEQ ID NO. 665), respectively.
800.000 beads/200 μl were coated in 96-well plates in the presence of 4×12.5 ng different biotin-pMHC, washed and 600 ng biotin anti-CD28 were added subsequently in a volume of 200 μl. Stimulations were initiated in 96-well plates by co-incubating […] CD8+ T cells with 2×10^5 washed coated beads in 200 μl TCM supplemented with 5 ng/ml IL-12 (PromoCell) for 3 days at 37° C. Half of the medium was then exchanged by fresh TCM supplemented with 80 U/ml IL-2 and incubating was continued for 4 days at 37° C. This stimulation cycle was performed for a total of three times. For the pMHC multimer readout using 8 different pMHC molecules per condition, a two-dimensional combinatorial coding approach was used as previously described (Andersen et al., 2012) with minor modifications encompassing coupling to 5 different fluorochromes. Finally, multimeric analyses were performed by staining the cells with Live/dead near IR dye (Invitrogen, Karlsruhe, Germany), CD8-FITC antibody clone SK1 (BD, Heidelberg, Germany) and fluorescent pMHC multimers. For analysis, a BD LSRII SORP cytometer equipped with appropriate lasers and filters was used. Peptide specific cells were calculated as percentage of total CD8+ cells. Evaluation of multimeric analysis was done using the FlowJo software (Tree Star, Oregon, USA). In vitro priming of specific multimer+ CD8+ lymphocytes was detected by comparing to negative control stimulations. […]

Substance | Peptide exchange (MHC class I binding score, peptide exchange yield) (HLA-A*02:01) | donors (percentage of positive donors) (CD8+ T cells) | wells (percentage of positive wells) (CD8+ T cells)
283 (ALYIGDGYVIHLA; listed as Homo sapiens) [compound 283] | “+++” (≥50 = +++) | +++ (50%-69% = +++) | + (<20% = +)
652 (TLWYRAPEV; listed as Homo sapiens) [compound 652] |  | ++++ (> = 70% = ++++) | +++ (50%-69% = +++)
